Test results published in PubChem BioAssay AID248 (DTP/NCI, 2004).
Values joined by “and” are separate entries in the source; they are usually repeats but may differ in a detail not shown here. Identical values can stand only once. Toxic doses and inconclusive results are not listed. No stated cut-off is given here; in the data, active means T/C of 150% or more; inactive means T/C below 125%. Peptide text beside a SMILES is read from it. * marks the point of attachment. Cbz = O=C(OCc1ccccc1)*; Bn = c1ccc(C*)cc1

System: L1210 leukemia ip in BDF1 mice, survival T/C
Assay: NCI In Vivo Anticancer Drug Screen. Data for tumor model L1210 Leukemia (intraperitoneal) in B6D2F1 (BDF1) mice
Settings: endpoint: mean survival time, higher = longer survival
Outline: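 Transplanted-tumor mice were given test agent; controls received vehicle only. Survival readings from the two groups were divided (treated over control).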

[1] = dose: 100.0 mg/kg/injection, schedule: Q01DX001 (ip), vehicle: saline with Tween-80
[2] = dose: 200.0 mg/kg/injection, schedule: Q01DX001 (ip), vehicle: saline with Tween-80
[3] = dose: 400.0 mg/kg/injection, schedule: Q01DX001 (ip), vehicle: saline with Tween-80
[4] = dose: 100.0 mg/kg/injection, schedule: Q01DX001 (ip), vehicle: carboxymethylcellulose (CMC)
[5] = dose: 200.0 mg/kg/injection, schedule: Q01DX001 (ip), vehicle: carboxymethylcellulose (CMC)
[6] = dose: 400.0 mg/kg/injection, schedule: Q01DX001 (ip), vehicle: carboxymethylcellulose (CMC)
[7] = dose: 100.0 mg/kg/injection, schedule: Q01DX009 (ip), vehicle: saline with Tween-80
[8] = dose: 200.0 mg/kg/injection, schedule: Q01DX009 (ip), vehicle: saline with Tween-80
[9] = dose: 100.0 mg/kg/injection, schedule: Q04DX003 (ip), vehicle: Klucel (hydroxypropylcellulose) (HPC)
[10] = dose: 200.0 mg/kg/injection, schedule: Q04DX003 (ip), vehicle: Klucel (hydroxypropylcellulose) (HPC)
[11] = dose: 400.0 mg/kg/injection, schedule: Q04DX003 (ip), vehicle: Klucel (hydroxypropylcellulose) (HPC)
[12] = dose: 100.0 mg/kg/injection, schedule: Q04DX003 (ip), vehicle: saline with Tween-80
[13] = dose: 200.0 mg/kg/injection, schedule: Q04DX003 (ip), vehicle: saline with Tween-80
[14] = dose: 15.0 mg/kg/injection, schedule: Q01DX Z (ip), vehicle: carboxymethylcellulose (CMC)
[15] = dose: 30.0 mg/kg/injection, schedule: Q01DX Z (ip), vehicle: carboxymethylcellulose (CMC)
[16] = dose: 60.0 mg/kg/injection, schedule: Q01DX Z (ip), vehicle: carboxymethylcellulose (CMC)
[17] = dose: 120.0 mg/kg/injection, schedule: Q01DX Z (ip), vehicle: carboxymethylcellulose (CMC)

Measured: T/C

O=[N+]([O-])c1ccc(OCc2ccc(COc3ccc(S(=O)(=O)F)cc3)cc2)c(Cl)c1
inactive: [1] 90 % of control | [2] 102 % of control | [3] 96 % of control

COc1ccccc1CN1CCCN(Cc2ccccc2OC)C1c1cc(OC)c(O)c(OC)c1
inactive: [4] 98 % of control | [5] 91 % of control | [6] 96 % of control

COC(=O)C1(CN(C)C)CCCC(CN(C)C)(C(=O)OC)C1=O (stereo not given)
inactive: dose: 50.0 mg/kg/injection, schedule: Q01DX Z (ip), vehicle: carboxymethylcellulose (CMC) 100 % of control and 106 % of control | dose: 75.0 mg/kg/injection, schedule: Q01DX Z (ip), vehicle: carboxymethylcellulose (CMC) 106 % of control and 109 % of control | dose: 115.0 mg/kg/injection, schedule: Q01DX Z (ip), vehicle: carboxymethylcellulose (CMC) 113 % of control | dose: 160.0 mg/kg/injection, schedule: Q01DX Z (ip), vehicle: carboxymethylcellulose (CMC) 106 % of control and 113 % of control

O=c1[nH]c(=O)n(C2OC(CO)C(O)C2O)c2scnc12 (stereo not given)
inactive: dose: 100.0 mg/kg/injection, schedule: Q01DX005 (ip), vehicle: saline 98 % of control | dose: 200.0 mg/kg/injection, schedule: Q01DX005 (ip), vehicle: saline 100 % of control

O=c1c2ccccc2c(-c2ccccc2)nn1Cc1ccccc1
inactive: [7] 93 % of control | [8] 102 % of control | dose: 400.0 mg/kg/injection, schedule: Q01DX009 (ip), vehicle: saline with Tween-80 104 % of control

O=C1c2ccccc2C(=O)c2c(O)c(Cc3ccccn3)cc(O)c21
inactive: dose: 100.0 mg/kg/injection, schedule: Q04DX003 (ip), vehicle: saline sonified 89 % of control | dose: 200.0 mg/kg/injection, schedule: Q04DX003 (ip), vehicle: saline sonified 89 % of control | dose: 400.0 mg/kg/injection, schedule: Q04DX003 (ip), vehicle: saline sonified 94 % of control

COC(=O)C(NC(=O)C(CSCc1ccccc1)NC(=O)OCc1ccccc1)C(C)C (stereo not given) (Cbz-Cys(Bn)-Val-OMe; configuration not given here)
inactive: [9] 95 % of control | [10] 97 % of control | [11] 95 % of control

O=C1CCCCCC/C(=N/O)CCCO1
inactive: [1] 94 % of control | [2] 97 % of control | [3] 97 % of control

O=C1c2cc3c(cc2CCC1N1CCOCC1)CCCC3 (stereo not given)
inactive: [12] 111 % of control | [13] 114 % of control

CCOc1ccccc1NC(=S)Nc1ccc([N+](=O)[O-])cc1
inactive: dose: 50.0 mg/kg/injection, schedule: Q01DX009 (ip), vehicle: saline with Tween-80 92 % of control | [7] 92 % of control | [8] 95 % of control

CCOC(=O)/C=C/Cc1cc(-c2ccccc2)ccc1O
inactive: dose: 100.0 mg/kg/injection, schedule: Q04DX003 (ip), vehicle: acetone 98 % of control | dose: 200.0 mg/kg/injection, schedule: Q04DX003 (ip), vehicle: acetone 98 % of control | dose: 400.0 mg/kg/injection, schedule: Q04DX003 (ip), vehicle: acetone 103 % of control

O=P(O)(Nc1ccccc1)Nc1ccccc1
inactive: dose: 100.0 mg/kg/injection, schedule: Q04DX002 (ip), vehicle: saline with Tween-80 113 % of control | dose: 200.0 mg/kg/injection, schedule: Q04DX002 (ip), vehicle: saline with Tween-80 103 % of control | dose: 400.0 mg/kg/injection, schedule: Q04DX002 (ip), vehicle: saline with Tween-80 113 % of control

CN(Cc1cnc2cc(N)[nH]c(=O)c2n1)c1ccc(C(=O)NC(CCC(=O)O)C(=O)O)cc1 (stereo not given)
inactive: dose: 100.0 mg/kg/injection, schedule: Q04DX002 (ip), vehicle: water 94 % of control | dose: 200.0 mg/kg/injection, schedule: Q04DX002 (ip), vehicle: water 99 % of control | dose: 400.0 mg/kg/injection, schedule: Q04DX002 (ip), vehicle: water 118 % of control

Cc1ccc(/C(=C/c2ccc([N+](=O)[O-])cc2)C(=O)O)cc1
inactive: [9] 102 % of control | [10] 98 % of control | [11] 95 % of control

CCCCN(CCCC)CCSc1c(Cl)c(Cl)c(Cl)c(Cl)c1Cl
inactive: dose: 320.0 mg/kg/injection, schedule: Q01DX Z (ip), vehicle: saline 99 % of control | dose: 480.0 mg/kg/injection, schedule: Q01DX Z (ip), vehicle: saline 90 % of control

CC/C(=N/N=C(N)N)C(=O)O
inactive: [14] 102 % of control | [15] 95 % of control | [16] 103 % of control and 106 % of control | [17] 96 % of control and 98 % of control | dose: 240.0 mg/kg/injection, schedule: Q01DX Z (ip), vehicle: carboxymethylcellulose (CMC) 100 % of control | dose: 480.0 mg/kg/injection, schedule: Q01DX Z (ip), vehicle: carboxymethylcellulose (CMC) 102 % of control

CC(=O)Nc1ccc(C(C)(C)c2ccc([N+](=O)[O-])cc2)cc1[N+](=O)[O-]
inactive: dose: 50.0 mg/kg/injection, schedule: Q01DX001 (ip), vehicle: other 98 % of control | dose: 100.0 mg/kg/injection, schedule: Q01DX001 (ip), vehicle: other 104 % of control | dose: 400.0 mg/kg/injection, schedule: Q01DX001 (ip), vehicle: other 93 % of control

N=C(N)N=Nc1c(O)[nH]c(=O)[nH]c1=O
inactive: [14] 98 % of control | [15] 98 % of control | [16] 93 % of control | dose: 60.0 mg/kg/injection, schedule: Q01DX Z (oral), vehicle: carboxymethylcellulose (CMC) 110 % of control | [17] 97 % of control | dose: 120.0 mg/kg/injection, schedule: Q01DX Z (oral), vehicle: carboxymethylcellulose (CMC) 108 % of control | dose: 240.0 mg/kg/injection, schedule: Q01DX Z (oral), vehicle: carboxymethylcellulose (CMC) 104 % of control | dose: 480.0 mg/kg/injection, schedule: Q01DX Z (oral), vehicle: carboxymethylcellulose (CMC) 108 % of control

CCOC12c3cc(OC)ccc3N(S(=O)(=O)c3ccc(C)cc3)CC1C2(Br)Br (stereo not given)
inactive: dose: 100.0 mg/kg/injection, schedule: Q01DX009 (ip), vehicle: Klucel (hydroxypropylcellulose) (HPC) 97 % of control | [9] 100 % of control | dose: 200.0 mg/kg/injection, schedule: Q01DX009 (ip), vehicle: Klucel (hydroxypropylcellulose) (HPC) 87 % of control | [10] 100 % of control | dose: 400.0 mg/kg/injection, schedule: Q01DX009 (ip), vehicle: Klucel (hydroxypropylcellulose) (HPC) 94 % of control | [11] 91 % of control

O=C1C(c2ccc(Br)cc2)=C(c2ccccc2)c2c(-c3ccccc3)cc(Br)c(-c3ccccc3)c21
inactive: [1] 90 % of control | [2] 90 % of control | [3] 87 % of control

COC(=O)C1C2CC(Br)C(Br)CC21 (stereo not given)
inactive: [12] 94 % of control | [13] 94 % of control | dose: 400.0 mg/kg/injection, schedule: Q04DX003 (ip), vehicle: saline with Tween-80 94 % of control

O=[N+]([O-])c1ccccc1Nc1ccccc1
inactive: [4] 91 % of control | [5] 89 % of control | [6] 91 % of control
